Source: PubChem BioAssay AID330 (DTP/NCI, 2004)
Several values for one entry are separate records, joined by “and”; a condition that tells them apart may be missing. Equal entries are not always repeated. Inconclusive results and toxic doses are left out. How the source made its calls: active means survival T/C of 150% or more; inactive means T/C below 125% in these data.

System: P388 leukemia ip, CD2F1 mice, survival T/C
Test: NCI In Vivo Anticancer Drug Screen. Data for tumor model P388 Leukemia (intraperitoneal) in CD2F1 (CDF1) mice
Settings: endpoint: median survival time, higher = longer survival
Outline: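 Mice carrying the transplanted tumor received test compound or vehicle. Survival was recorded in each group, and the value is the treated-group measurement divided by that of the vehicle-treated control group.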

[1] = dose: 120.0 mg/kg/injection, schedule: Q01DX005 (ip), vehicle: saline with Tween-80
[2] = dose: 240.0 mg/kg/injection, schedule: Q01DX005 (ip), vehicle: saline with Tween-80
[3] = dose: 12.5 mg/kg/injection, schedule: Q01DX009 (ip), vehicle: saline with Tween-80
[4] = dose: 25.0 mg/kg/injection, schedule: Q01DX009 (ip), vehicle: saline with Tween-80
[5] = dose: 50.0 mg/kg/injection, schedule: Q01DX009 (ip), vehicle: saline with Tween-80
[6] = dose: 200.0 mg/kg/injection, schedule: Q01DX009 (ip), vehicle: saline with Tween-80
[7] = dose: 60.0 mg/kg/injection, schedule: Q01DX005 (ip), vehicle: saline with Tween-80

Measured: T/C

Cc1c2cc[n+](C)cc2c(COC2OC(CO)C(O)C2O)c2c3ccccc3n(C)c12 (stereo not given)
inactive: dose: 60.0 mg/kg/injection, schedule: Q01DX005 (ip), vehicle: Klucel (hydroxypropylcellulose) (HPC) 123 % of control

O=C(C#Cc1ccccc1)C1=Cc2ccccc2OC1
inactive: dose: 50.0 mg/kg/injection, schedule: Q01DX005 (ip), vehicle: Klucel (hydroxypropylcellulose) (HPC) 94 % of control | dose: 100.0 mg/kg/injection, schedule: Q01DX005 (ip), vehicle: Klucel (hydroxypropylcellulose) (HPC) 95 % of control | dose: 200.0 mg/kg/injection, schedule: Q01DX005 (ip), vehicle: Klucel (hydroxypropylcellulose) (HPC) 96 % of control

CCOC(=O)C1=C(N)N(S(=O)(=O)c2ccc(C)cc2)CCC(C(=O)OC)=C1
inactive: [1] 119 % of control | [2] 108 % of control

O=C(O)c1cccc(-n2ncc(Cl)c(Cl)c2=O)c1
inactive: [3] 113 % of control | [4] 108 % of control | [5] 99 % of control and 104 % of control | [6] 88 % of control

NC(=O)C1CCCN1C(=O)/C=C\c1ccccc1 (stereo not given)
inactive: [7] 109 % of control | [1] 112 % of control | [2] 101 % of control

Clc1ccc(NCc2ccc(CNc3ccc(Cl)cc3)cc2)cc1
inactive: dose: 6.25 mg/kg/injection, schedule: Q01DX009 (ip), vehicle: saline with Tween-80 98 % of control | [3] 91 % of control | [4] 91 % of control | [5] 97 % of control

CC(CN1C(=O)CCC1=O)N1C(=O)CCC1=O (stereo not given)
inactive: dose: 50.0 mg/kg/injection, schedule: Q01DX005 (ip), vehicle: saline 100 % of control | dose: 100.0 mg/kg/injection, schedule: Q01DX005 (ip), vehicle: saline 103 % of control | dose: 200.0 mg/kg/injection, schedule: Q01DX005 (ip), vehicle: saline 100 % of control

O=C1N/C(=C\c2nc3ccccc3s2)c2ccccc21
inactive: [5] 96 % of control | dose: 100.0 mg/kg/injection, schedule: Q01DX009 (ip), vehicle: saline with Tween-80 90 % of control | [6] 89 % of control

CC(C)C1CCC(C)(Cl)C2CCC(C)(Cl)CC12 (stereo not given)
inactive: dose: 100.0 mg/kg/injection, schedule: Q04DX003 (ip), vehicle: other 90 % of control | dose: 200.0 mg/kg/injection, schedule: Q04DX003 (ip), vehicle: other 100 % of control | dose: 400.0 mg/kg/injection, schedule: Q04DX003 (ip), vehicle: other 100 % of control

Cc1sc2c(c1C)c(=O)[nH]c1c(C#N)c(-c3ccc(Cl)cc3)cn12
inactive: [7] 86 % of control and 90 % of control | [1] 89 % of control | [2] 94 % of control

Nc1ccc2c(C(F)(F)F)cc(=O)[nH]c2c1
inactive: dose: 25.0 mg/kg/injection, schedule: Q01DX005 (ip), vehicle: saline with Tween-80 100 % of control | dose: 50.0 mg/kg/injection, schedule: Q01DX005 (ip), vehicle: saline with Tween-80 91 % of control | dose: 100.0 mg/kg/injection, schedule: Q01DX005 (ip), vehicle: saline with Tween-80 92 % of control

CCCCCc1cc(O)c2c(c1)OC(C)(C)c1ccc(C)cc1-2
inactive: dose: 64.0 mg/kg/injection, schedule: Q01DX009 (ip), vehicle: saline 115 % of control | dose: 128.0 mg/kg/injection, schedule: Q01DX009 (ip), vehicle: saline 97 % of control | dose: 256.0 mg/kg/injection, schedule: Q01DX009 (ip), vehicle: saline 109 % of control | dose: 512.0 mg/kg/injection, schedule: Q01DX009 (ip), vehicle: saline 106 % of control

CC1(C)NC(=O)N(Cc2ccccc2)C1=O
inactive: dose: 50.0 mg/kg/injection, schedule: Q01DX009 (ip), vehicle: Klucel (hydroxypropylcellulose) (HPC) 102 % of control | dose: 50.0 mg/kg/injection, schedule: Q01DX009 (ip), vehicle: saline 108 % of control | dose: 100.0 mg/kg/injection, schedule: Q01DX009 (ip), vehicle: Klucel (hydroxypropylcellulose) (HPC) 101 % of control | dose: 100.0 mg/kg/injection, schedule: Q01DX009 (ip), vehicle: saline 108 % of control | dose: 200.0 mg/kg/injection, schedule: Q01DX009 (ip), vehicle: Klucel (hydroxypropylcellulose) (HPC) 102 % of control | dose: 200.0 mg/kg/injection, schedule: Q01DX009 (ip), vehicle: saline 104 % of control

COc1ccc(N2C(=O)C(C)SC23C(=O)Nc2ccccc23)cc1 (stereo not given)
inactive: [7] 99 % of control | [1] 100 % of control | [2] 98 % of control
